# Test results published in patent US20260283946A1, “PHARMACEUTICAL DRY POWDER COMPOSITION AND METHODS FOR TREATING RESPIRATORY TRACT INFECTIONS” (priority 2022, published 2026).
# Test system: Vero cells
# Experiment: Luciferase assay of total cellular ATP
# Format: cell-based, African green monkey
# Settings: 5 μM ouabain, 0.4, 0.8 and 1.1% BREATHOX POWDER, 1 h
# Description: Then to see the available ATP a luciferase assay was performed. Changes of the total concentration of ATP in Vero cells exposed to increasing concentrations of NaCl for 1 or 72 h was determined by plate microfluorimetry recordings with the FlexStation III microplate reader and the ATP Assay Kit (SIGMA-ALDRICH) following the manufacturer's instructions. The kit provides extremely sensitive results, detecting ATP release of 10-100 mammalian cells/well, based on the firefly luciferase-catalyzed oxidation of D-luciferin in the presence of ATP, which the amount of ATP is quantified by the amount of light (hv) produced. Recordings of the luminescence intensity of 5×10^4 cells in black clear bottom of 96 wells plates were acquired at rest (point 0 h), 1 h, 24 h and 72 h after NaCl challenge (depolarizing agent).
# In order to test whether the reduced level of ATP was caused by the increased activity of Na+/K+ ATPase transporter, Vero cells were treated with 0.4, 0.8 and 1.1% of BREATHOX® POWDER in presence or absence of 5 μM ouabain (Na+/K+ ATPase transporter inhibitor). Changes in total ATP concentration in Vero cells exposed to increasing concentrations of BREATHOX® POWDER with or without 5 μM ouabain for 1 hour was determined by plate microfluorimetry recordings with the FlexStation III microplate reader and the ATP Assay Kit (SIGMA-Aldrich) following the manufacturer's instructions. […]
smiles,measurement,value
C[C@@H]1O[C@@H](O[C@H]2C[C@@H](O)[C@]3(CO)[C@H]4[C@H](O)C[C@]5(C)[C@@H](C6=CC(=O)OC6)CC[C@]5(O)[C@@H]4CC[C@]3(O)C2)[C@H](O)[C@H](O)[C@H]1O [ouabain],decrease in ATP level caused by BREATHOX POWDER,significantly reversed
